Test results: paper PMC3447335, “Evaluation of Pseudopteroxazole and Pseudopterosin Derivatives against Mycobacterium tuberculosis and Other Pathogens” (Marine Drugs, 2012)
In brackets after ≈: the same amount, converted by molar mass. Where two headings read alike, the source gives them in different places.

Experiments:
[1] = system: M. tuberculosis H37Rv (ATCC 27294); experiment: Microplate Alamar blue assay (MABA); type: cell-based, Mycobacterium tuberculosis; conditions: for SI (Selectivity Index): (Vero Cell IC50)/(M. tuberculosis MIC); for MIC: Mycobacterium tuberculosis
[2] = system: M. tuberculosis H37Rv (ATCC 27294); experiment: microbe, parasite or virus in culture; type: cell-based, Mycobacterium tuberculosis; conditions: for inhibition at 64 µg/mL / MIC: Mycobacterium tuberculosis; for inhibition at 64 µg/mL: % inhibition at 64 μg/mL, read-out: LORA % inh; for MIC: read-out: LORA MIC
[3] = system: MRSA; experiment: Microbroth dilution antibiotic susceptibility assay; type: cell-based; conditions: Staphylococcus aureus, read-out: IC50 MRSA
[4] = system: VRE; experiment: as above; type: cell-based, Enterococcus faecium; conditions: Enterococcus, read-out: IC50 VRE
[5] = system: M. smegmatis (ATCC 12051); experiment: as above; type: cell-based; conditions: Mycolicibacterium smegmatis
[6] = system: M. diernhoferi (ATCC 19340); experiment: as above; type: cell-based; conditions: Mycolicibacterium diernhoferi
[7] = system: Vero cells; experiment: cells; conditions: Chlorocebus sabaeus; for cytotoxicity at 128 µg/mL: read-out: Vero cell (% inh); for IC50: read-out: Vero cell IC50
[8] = system: M. tuberculosis H37Rv; set-up: method as in PMID 9145860; conditions: comparison values; cited from earlier work
[9] = M. tuberculosis H37Rv (ATCC 27294), replicating, read-out: MABA MIC
[10] = non-replicating persistent model
[11] = ATCC12051, microbroth dilution, read-out: MIC M. smegmatis
[12] = ATCC19340, microbroth dilution, read-out: MIC M. diernhoferi
[13] = wild-type M. tuberculosis H37Rv, Table 2 experiment, read-out: MABA MIC H37Rv

Structure (SMILES)	SI (Selectivity Index) [1]	MIC [1, 9]	inhibition at 64 µg/mL [2]	MIC [5, 11]	MIC [6, 12]	IC50 [7]	further results
CC(C)=CC1CC(C)C2CCC(C)c3c2c1c(C)c1nc(Cc2cnc[nH]2)oc31 (stereo not shown) [7a/7b]	>9.7	13 µg/mL	92.5%	4 µg/mL (≈ 10.3 µM)	2 µg/mL (≈ 5.13 µM)	> 128 µg/mL	MIC ([1]; MABA, value given in μM, read-out: MIC against M. tuberculosis H37Rv): 34 µM; MIC [2, 10]: 12 µg/mL; MIC ([2]; value given in μM): 31 µM; IC50 [3]: 3 µg/mL (≈ 7.7 µM); IC50 [4]: 7.5 µg/mL (≈ 19.3 µM); cytotoxicity at 128 µg/mL [7]: 4%
CC(C)=C[C@@H]1C[C@H](C)[C@H]2CC[C@H](C)c3c(O)c(O)c(C)c1c32 [Compound 4, pseudopterosin G–J aglycone]	–	> 128 µg/mL	53.1%	8 µg/mL (≈ 26.6 µM)	8 µg/mL (≈ 26.6 µM)	50 µg/mL (≈ 166 µM)	IC50 ([3]; microbroth dilution): 88 µg/mL (≈ 293 µM); IC50 ([4]; microbroth dilution): > 128 µg/mL
CC(C)=C[C@@H]1C[C@H](C)[C@H]2CC[C@H](C)c3c2c1c(C)c1nccnc31 [Compound 5, Pseudopteroquinoxaline]	0.8	29 µg/mL	99.9%	16 µg/mL (≈ 49.9 µM)	64 µg/mL (≈ 200 µM)	22 µg/mL (≈ 68.6 µM)	IC50 ([3]; microbroth dilution): > 128 µg/mL; IC50 ([4]; microbroth dilution): > 128 µg/mL
COC(C)(C)C[C@@H]1C[C@H](C)[C@H]2CC[C@H](C)c3c2c1c(C)c1nccnc31 [Compound 6, 14,15-Dihydro-15-methoxy-pseudopteroquinoxaline]	0.2	84 µg/mL	99.9%	–	–	15 µg/mL (≈ 42.6 µM)	–
CCCCCOc1c(C)c2c3c(c1O)[C@@H](C)CC[C@@H]3[C@@H](C)C[C@H]2C=C(C)C [Compound 8, 10-Pentoxy-pseudopterosin G–J Aglycone]	–	> 128 µg/mL	35.1%	> 128 µg/mL	> 128 µg/mL	49 µg/mL (≈ 132 µM)	IC50 ([3]; microbroth dilution): 47 µg/mL (≈ 127 µM); IC50 ([4]; microbroth dilution): 22 µg/mL (≈ 59.4 µM)
COc1c(C)c2c3c(c1O)[C@@H](C)CC[C@@H]3[C@@H](C)C[C@H]2C=C(C)C [Compound 9]	>4.3	30 µg/mL	99.7%	4 µg/mL (≈ 12.7 µM)	4 µg/mL (≈ 12.7 µM)	> 128 µg/mL	MIC [2, 10]: 52 µg/mL; IC50 ([3]; microbroth dilution): 9 µg/mL (≈ 28.6 µM); IC50 ([4]; microbroth dilution): 12 µg/mL (≈ 38.2 µM); cytotoxicity at 128 µg/mL [7]: 26%
COc1c(C)c2c3c(c1OC)[C@@H](C)CC[C@@H]3[C@@H](C)C[C@H]2C=C(C)C [Compound 10, 9,10-Dimethoxy-pseudopterosin G–J Aglycone]	–	> 128 µg/mL	77.5%	> 64 µg/mL	> 64 µg/mL	51 µg/mL (≈ 155 µM)	IC50 ([3]; microbroth dilution): > 128 µg/mL; IC50 ([4]; microbroth dilution): 25 µg/mL (≈ 76.1 µM)
COc1c(C)c2c3c(c1OS(=O)(=O)C(F)(F)F)[C@@H](C)CC[C@@H]3[C@@H](C)C[C@H]2C=C(C)C [Compound 11, 9-Trifluoromethylsulfonyloxy-10-methoxy-pseudopterosin G–J Aglycone]	–	> 128 µg/mL	37.5%	> 64 µg/mL	> 64 µg/mL	51 µg/mL (≈ 114 µM)	IC50 ([3]; microbroth dilution): > 128 µg/mL; IC50 ([4]; microbroth dilution): > 128 µg/mL
COc1c(C)c2c3c(c1OC(=O)N(C)C)[C@@H](C)CC[C@@H]3[C@@H](C)C[C@H]2C=C(C)C [Compound 12, 9-Dimethylcarbamoyloxy-10-methoxy-pseudopterosin G–J Aglycone]	–	> 128 µg/mL	80%	–	–	> 128 µg/mL	IC50 [3]: > 128 µg/mL; IC50 [4]: 70 µg/mL (≈ 182 µM); MIC ([5]; ATCC12051, read-out: MIC M. smegmatis): 64 µg/mL (≈ 166 µM); MIC ([6]; ATCC19340, read-out: MIC M. diernhoferi): > 64 µg/mL; cytotoxicity at 128 µg/mL [7]: 0%
COc1ccc(CC=C(C)C)c(OC)c1O [Compound 14, 2,6-Dimethoxy-3-(3-methylbut-2-enyl)phenol]	–	> 128 µg/mL	-4.7%	128 µg/mL (≈ 576 µM)	64 µg/mL (≈ 288 µM)	44 µg/mL (≈ 198 µM)	IC50 [3]: > 128 µg/mL; IC50 [4]: > 128 µg/mL
COc1cc(CC=C(C)C)c(CC=C(C)C)c(OC)c1O [Compound 15, 2,6-Dimethoxy-3,4-bis(3-methylbut-2-enyl)phenol]	1.1	59 µg/mL	99.7%	8 µg/mL (≈ 27.5 µM)	8 µg/mL (≈ 27.5 µM)	64 µg/mL (≈ 220 µM)	MIC [2, 10]: 58 µg/mL; IC50 [3]: 20 µg/mL (≈ 68.9 µM); IC50 [4]: 3 µg/mL (≈ 10.3 µM)
COc1c(O)c(OC)c(CC=C(C)C)c(CC=C(C)C)c1CC=C(C)C [Compound 16, 2,6-Dimethoxy-3,4,5-tris(3-methylbut-2-enyl)phenol]	>2.3	56 µg/mL	79.7%	> 128 µg/mL	8 µg/mL (≈ 22.3 µM)	> 128 µg/mL	IC50 [3]: > 128 µg/mL; IC50 [4]: 3 µg/mL (≈ 8.37 µM); cytotoxicity at 128 µg/mL [7]: 29%
COc1ccc(CC=C(C)C)c(OC)c1O[C@@H]1O[C@H](CO)[C@H](O)[C@H](O)[C@H]1O [Compound 20, 2,6-Dimethoxy-3-(3-methylbut-2-enyl)phenol-β-D-galactopyranoside]	–	> 128 µg/mL	-24.8%	> 128 µg/mL	> 128 µg/mL	82 µg/mL (≈ 213 µM)	IC50 [3]: > 128 µg/mL; IC50 [4]: > 128 µg/mL
CC(C)=C[C@@H]1C[C@H](C)[C@H]2CC[C@H](C)c3c2c1c(C)c1ocnc31 [Compound 22, isopseudopteroxazole]	3.6	14 µg/mL	100%	–	–	52 µg/mL (≈ 168 µM)	MIC [2, 10]: 44 µg/mL
COc1ccccc1-c1nc2c(C)c3c4c(c2o1)C(C)CCC4C(C)CC3C=C(C)C (stereo not shown) [Compound 23]	–	> 82 µg/mL	83.3%	–	–	34 µg/mL (≈ 81.8 µM)	–
CC(C)=CC1CC(C)C2CCC(C)c3c2c1c(C)c1nc(-c2ccc(F)cc2)oc31 (stereo not shown) [Compound 24]	–	> 31 µg/mL	-19%	–	–	> 31 µg/mL	cytotoxicity at 128 µg/mL [7]: 0%

Structure (SMILES)	SI (Selectivity Index) [1]	MIC [1, 9]	inhibition at 64 µg/mL [2]	MIC [5, 11]	MIC [6, 12]	IC50 [7]	further results
CC(C)=CC1CC(C)C2CCC(C)c3c2c1c(C)c1nc(C)oc31 (stereo not shown) [Compound 25]	0.8	15 µg/mL	99%	–	–	12 µg/mL (≈ 37.1 µM)	–
CCC(C)c1nc2c(C)c3c4c(c2o1)C(C)CCC4C(C)CC3C=C(C)C (stereo not shown) [Compound 26]	–	> 103 µg/mL	59.1%	–	–	73 µg/mL (≈ 200 µM)	–
CSCCc1nc2c(C)c3c4c(c2o1)C(C)CCC4C(C)CC3C=C(C)C (stereo not shown) [Compound 27]	>1.2	107 µg/mL	90%	–	–	> 128 µg/mL	cytotoxicity at 128 µg/mL [7]: 0%
CC(C)=CC1CC(C)C2CCC(C)c3c2c1c(C)c1nc(Cc2ccccc2)oc31 (stereo not shown) [Compound 28]	–	> 128 µg/mL	13.7%	–	–	82 µg/mL (≈ 205 µM)	–
CC(C)=CC1CC(C)C2CCC(C)c3c2c1c(C)c1nc(C(C)O)oc31 (stereo not shown) [Compound 29]	0.5	53 µg/mL	99.8%	–	–	24 µg/mL (≈ 67.9 µM)	–
COC(=O)CCc1nc2c(C)c3c4c(c2o1)C(C)CCC4C(C)CC3C=C(C)C (stereo not shown) [Compound 30]	–	> 128 µg/mL	99.1%	–	–	31 µg/mL (≈ 78.4 µM)	MIC [2, 10]: 62 µg/mL
CC(C)=CC1CC(C)C2CCC(C)c3c2c1c(C)c1nc(CCC(=O)O)oc31 (stereo not shown) [Compound 31]	1.1	95 µg/mL	99.1%	–	–	102 µg/mL (≈ 267 µM)	–
CC(C)=CC1CC(C)C2CCC(C)c3c2c1c(C)c1nc(CCC(N)=O)oc31 (stereo not shown) [Compound 32]	1.9	29 µg/mL	99%	–	–	54 µg/mL (≈ 142 µM)	–
CC(C)=CC1CC(C)C2CCC(C)c3c2c1c(C)c1nc(CC(N)=O)oc31 (stereo not shown) [Compound 33]	0.8	59 µg/mL	97.1%	–	–	45 µg/mL (≈ 123 µM)	–
NNC(=O)c1ccncc1 [Isoniazid]	–	0.03 µg/mL	–	–	–	–	MIC [1, 13]: 0.03 µg/mL; LORA (% inh) in MIC column ([2]; % inhibition in parentheses, where the MIC exceeds the stated concentration): 65%; MIC [2, 10]: > 128 µg/mL
O=[N+]([O-])c1cn2c(n1)OC[C@@H](OCc1ccc(OC(F)(F)F)cc1)C2 [PA824, reference compound]	–	0.15 µg/mL	–	–	–	–	–
CO[C@H]1/C=C/O[C@@]2(C)Oc3c(C)c(O)c4c(O)c(c(/C=N/N5CCN(C)CC5)c(O)c4c3C2=O)NC(=O)/C(C)=C\C=C\[C@H](C)[C@H](O)[C@@H](C)[C@@H](O)[C@@H](C)[C@H](OC(C)=O)[C@@H]1C [Rifampin, reference compound]	–	0.04 µg/mL	–	4 µg/mL (≈ 4.86 µM)	4 µg/mL (≈ 4.86 µM)	–	MIC [1, 13]: 0.03 µg/mL; MIC [2]: 0.93 µg/mL; IC50 ([4]; microbroth dilution): 0.88 µg/mL (≈ 1.07 µM)
CN[C@H](CC(C)C)C(=O)N[C@H]1C(=O)N[C@@H](CC(N)=O)C(=O)N[C@H]2C(=O)N[C@H]3C(=O)N[C@H](C(=O)N[C@H](C(=O)O)c4cc(O)cc(O)c4-c4cc3ccc4O)[C@H](O)c3ccc(c(Cl)c3)Oc3cc2cc(c3O[C@@H]2O[C@H](CO)[C@@H](O)[C@H](O)[C@H]2O[C@H]2C[C@](C)(N)[C@H](O)[C@H](C)O2)Oc2ccc(cc2Cl)[C@H]1O [Vancomycin, reference compound]	–	–	–	–	–	–	IC50 [3]: 1.23 µg/mL (≈ 0.849 µM)
N[C@@H]1CON=C1O [cycloserine]	–	–	–	–	–	–	MIC of first and second line TB treatments [8]: 122 to 490 µM
CC[C@@H](CO)NCCN[C@@H](CC)CO [ethambutol]	–	–	–	–	–	–	MIC of first and second line TB treatments [8]: 4.6 to 9.2 µM
